According to patent US20260294770A1, “FORMULATIONS OF NARINGENIN” (DEBUT BIOTECHNOLOGY, INC., priority 2023, published 2026):

Assays:
[1] = cited from earlier work
NR4A2 = assay: Downregulation of gene expression and/or activity, 1% naringenin: NR4A2
Text: (§1) In certain embodiments, administration of a composition comprising naringenin leads to up-regulation of LCE5A, KRT77, ALOXE3, KRT1, HPGD, MUCL1, CASP14, WFDC12, KRT10, DNASE1L2, IL37, SERPINB12, HAL, UPK1A, CALML5, LCE2B, and/or MIR205. In certain embodiments, administration of a composition comprising naringenin leads to down-regulation of CCL11, CSF2, IL23A, IL11, BMP6, IL13RA2, C2CD4A, NR4A2, C2CD4B, FGF2, FARP4, GDF15, THBS1, HSPA1A, PTGS2, and/or DKK1. Tables 10 and 11 provide data for upregulation and downregulation respectively of certain genes after administration of compositions comprising 1% naringenin.
(§2) Nuclear receptor subfamily 4 group A member 2 (NR4A2) plays a role in the inflammatory response. In certain embodiments, downregulation of NR4A2 results in reduction in inflammation. In certain embodiments, the administration of composition comprising naringenin results in at least about 5 to about 15-fold downregulation of expression and/or activity of NR4A2. In certain embodiments, the administration of composition comprising naringenin results in at least about ten (10) fold downregulation of expression and/or activity of NR4A2.

FGF2 = assay: Downregulation of gene expression and/or activity, 1% naringenin: FGF2; settings: negative = downregulation
Text: as §1

C2CD4B = assay: Downregulation of gene expression and/or activity, 1% naringenin: C2CD4B
Text: as §1
as §2, with “C2 calcium dependent domain containing 4B (C2CD4B)” for “Nuclear receptor subfamily 4 group A member 2 (NR4A2)”, “C2CD4B” for “NR4A2”, “C2CD4B.” for “NR4A2.”

CASP14 = assay: Upregulation of gene expression and/or activity, 1% naringenin: CASP14
Text: as §1
Cysteine-aspartic acid protease 14 (CASP14) plays a role in keratinocyte terminal differentiation, which is important for the formation of the skin barrier. In certain embodiments, administration of compositions comprising naringenin leads to upregulation of CASP14. In certain embodiments, this upregulation of CASP14 leads to the improved skin barrier formation. In certain embodiments, the administration of composition comprising naringenin results in at least about 5 to about 20-fold upregulation of expression and/or activity of CASP14. In certain embodiments, the administration of composition comprising naringenin results in at least about ten (10) fold upregulation of expression and/or activity of CASP14.

psoriasis models = settings: cited from earlier work
WFDC12 = assay: Upregulation of gene expression and/or activity, 1% naringenin: WFDC12
Text: as §1

ALOXE3 = assay: Upregulation of gene expression and/or activity, 1% naringenin: ALOXE3
Text: as §1
Arachidonate lipoxygenase 3 (ALOXE3) is involved in formation of epidermis lipids. In particular, ALOXE3 helps add an oxygen molecule to certain fatty acids to produce substances called fatty acid hydroperoxides. The enzyme encoded by ALOXE3 is a hydroperoxide isomerase that synthesizes a unique type of epoxy alcohol (8R-hydroxy-11R,12R-epoxyeicosa-5Z,9E,14Z-trienoic acid) from 12R-hydroperoxyeicosatetraenoic acid (12R-HPETE). This epoxy alcohol can activate the nuclear receptor peroxisome proliferator-activated receptor alpha (PPARalpha), which is implicated in epidermal differentiation. Loss of function of the enzyme encoded by this gene results in ichthyosis, implicating the function of this gene in the differentiation of human skin. […]

KRT10 = assay: Upregulation of gene expression and/or activity, 1% naringenin: KRT10
Text: as §1
Keratin 10 (KRT10) is also involved in keratin production. Keratin is involved in increasing the barrier strength and resilience of the skin. Keratin 10 is produced in keratinocytes in the outer layer of the skin (the epidermis). In the fluid-filled space inside these cells (the cytoplasm), the keratin 10 protein partners with a similar protein, keratin 1 (produced from the KRT1 gene), to form molecules called keratin intermediate filaments. These filaments assemble into strong networks that provide strength and resiliency to the skin and protect it from being damaged by friction and other everyday physical stresses. […]

O=C1C[C@@H](c2ccc(O)cc2)Oc2cc(O)cc(O)c21 [naringenin, (2S)-5,7-Dihydroxy-2-(4-hydroxyphenyl)-2,3-dihydro-4H-1-benzopyran-4-one]
Safety on oral ingestion [1]: generally considered safe for oral ingestion
fold downregulation in expression and/or activity of NR4A2 (NR4A2): ~9 fold
Fold-increase (downregulation table) NR4A2 (NR4A2; negative = downregulation): −9 fold
Fold-increase (downregulation table) FGF2 (FGF2): −7 fold
fold downregulation in expression and/or activity of C2CD4B (C2CD4B): ~8 fold
Fold-increase (downregulation table) C2CD4B (C2CD4B; negative = downregulation): −8 fold
Fold-increase in expression and/or activity of CASP14 (CASP14): ~11 fold
Skin barrier restoration (psoriasis models): restoration of skin barrier
Fold-increase in expression and/or activity of WFDC12 (WFDC12): 11 fold
Fold-increase in expression and/or activity of ALOXE3 (ALOXE3): ~12 fold
Fold-increase in expression and/or activity of KRT10 (KRT10): ~6 fold
